Consider 1 compound from patent US20130251678A1, “BID DOSAGE REGIMEN FOR DEB025” (NOVARTIS AG, priority 2010, published 2013).

Each structure is given as a SMILES string.

Format in all cases: in vivo, human
For data set [1], the system named is HCV Genotype 1. The experiment in a line: Clinical study in HCV Genotype 1 non responder patients: decline in HCV RNA from baseline. Conditions: with peg-IFNα2a plus RBV. The text has this: HCV RNA levels can be measured using commercially available methods. As used herein, LOD means limit of detection and LOQ means limit of quantification of HCV RNA levels. For example, when using the COBAS® TaqMan® HCV Test, v2.0 (Roche Diagnostics) for assessment of HCV RNA levels, LOQ of 25 IU/ml (1.398 log10) and LOD of 10 IU/ml (1 log10) have been reported.
The efficacy of the therapy regimen may be monitored using standard protocols. Treatment may be followed by determinations of HCV in serum and measurement of serum ALT (alanine-aminotransferase) levels. For example, the patients may be assessed for the presence of HCV RNA in their plasma. HCV RNA (IU/mL) can be measured at regular intervals during the treatment, e.g., at Day 1 (pre-dose and 4, 8, and 12 hours post-dose) and pre-dose at Day 2, Day 3, Day 8, Day 15, Day 29, and at Week 12, Week 24, Week 36, Week 48, Week 72 (when applicable), and at follow up. In addition, the HCV strains in the patient can be sequenced and assessed for identification of mutations selecting for resistance.
In this hard to treat patient population, the 400 mg BID dose provided greater decline in HCV RNA from baseline (−1.41 log10 IU/ml) than the 800 mg QD dose (−0.70 log10 IU/ml). […]

For data set [2], the system named is HCV Genotype 1. The experiment in a line: Phase 2 study of genotype 1 treatment-naive patients: sustained virologic response (SVR). The settings on record: 600 mg BID for one week followed by 600 mg QD, 48 week treatment duration, combined with peg-IFNα2a. The source says: The virological response parameters are: rapid virologic response at treatment week 4 (RVR 4) defined by undetectable serum HCV-RNA at treatment week 4; early virological response (EVR), defined by at least 2 log10 IU/mL reduction in HCV-RNA compared to baseline (partial EVR) or undetectable serum HCV-RNA (complete EVR) at treatment week 12; sustained virological response (SVR24), defined as absence of HCV-RNA from serum by a sensitive Polymerase Chain Reaction (PCR) assay 24 weeks following end of therapy or the HCV RNA is undetectable (by LOD) 24 weeks after end of treatment; End of Treatment Response (ETR): HCV RNA undetectable (by LOD) at treatment end (completed or prematurely discontinued).

Data set [3] can be described thus: Observed alisporivir Cmin in the HCV Genotype 1 non responder patient study. Conditions: first week of treatment. The text has this: As used herein, AUC refers to Area Under the Curve in [hr ng/mL] or area under the concentration vs time curve indicating the integrated quantity of analyte or drug (the serum concentration curve) after dosing; Cmax refers to the maximum concentration of the analyte or drug in [ng/mL] achieved after dosing; Cmin refers to the minimum concentration of the analyte or drug in [ng/mL] achieved after dosing

As to `C/C=C/C[C@@H](C)[C@@H](O)[C@H]1C(=O)N[C@@H](CC)C(=O)N(C)[C@H](C)C(=O)N(CC)[C@@H](C(C)C)C(=O)N[C@@H](C(C)C)C(=O)N(C)[C@@H](CC(C)C)C(=O)N[C@@H](C)C(=O)N[C@H](C)C(=O)N(C)[C@@H](CC(C)C)C(=O)N(C)[C@@H](CC(C)C)C(=O)N(C)[C@@H](C(C)C)C(=O)N1C` [alisporivir, Alisporivir], the “decline in HCV RNA from baseline” value is given as −1.41 log10 IU/ml in data set [1] (400 mg BID during first week of treatment) and −0.70 log10 IU/ml in data set [1] (800 mg QD during first week of treatment). Also, the “rates of achievement of sustained virologic response (SVR) versus peg-IFNα2a” value in data set [2] is “superior”. The results for the “median observed Cmin” value in data set [3] (400 mg BID) and in data set [3] (800 mg QD) were 175 ng/mL and 148 ng/mL, respectively.
